Consider eight compounds from patent publication US7846944B2, “Pyrazolo-pyridinone compounds and methods of use thereof” (Amgen Inc., priority 2007, dated 2010).

The structures appear in SMILES notation. Like-named read-outs stand apart in the source and are kept apart here. A value given as a limit tells only on which side of the number the result lay.

For orientation: IC50 means the midpoint of a concentration-inhibition curve. What is called ED50 is the dose that gives a 50% effect, or the effect in half of the subjects. A lower ED50 goes with an effect at a small dose.

Assay [1] addresses recombinant human p38α (Homo sapiens, UniProt Q16539). Put plainly: Purified and activated recombinant human p38α HTRF kinase assay. In kind it is biochemical. The note with it: 1 nM p38α, 50 μM ATP, GST-ATF2 substrate, read-out: p38a IC50.
The test system of assay [2] is production of IL-1β, IL-6, and TNF-α by PBMC activated with LPS. Put plainly: Lipopolysaccharide-activated PBMC cytokine production assay. In kind it is cell-based. The note with it: read-out: IC50 in the whole blood PMBC assay. As to the method:
Lipopolysaccharide-Activated PBMC Cytokine Production Assay
Test compounds were evaluated in vitro for the ability to inhibit the production of IL-1β, IL-6, and TNF-α by PBMC activated with bacterial lipopolysaccharide (LPS). Fresh leukocytes were obtained from a local blood bank, and peripheral blood mononuclear cells (PBMCs) were isolated by density gradient centrifugation on Ficol-Paque Plus (Pharmacia).
Preparation of Test Compound Stock Solutions
All reagents were prepared in RPMI 1640+10% v/v human AB serum+1×Pens/Strep/Glu (assay medium). Test compounds were dissolved in 100% DMSO and serially diluted in 96-well polypropylene round bottom micro titer plates (drug plate). Serial dilutions were then diluted 1:250 into assay medium to a 4× working concentration. Compound serial dilutions were half-log, 10 point titrations with a final starting concentration of 1 μM.
Treatment of Cells with Test Compounds and Activation with Lipopolysaccharide
LPS was prepared to a 4× concentration in assay medium. 100 μl of PBMC (1×10^6 cells/ml) were plated in a 96-well polystyrene flat bottom micro titer tissue culture plate and incubated with 50 μl of 4× compound serial dilution for 1 hour at 37° C., 5% CO2 in a tissue culture incubator. 50 μl 4×LPS or control was added and the plates were incubated at 37° C., 5% CO2 in a tissue culture incubator for 18 hours. The final DMSO concentration was 0.1%. The total volume was 200 μL. The final LPS concentration was 100 ng/mL. After 18 hours culture supernatants were removed and IL-1β, IL-6, and TNF-α presence in the supernatants was quantified using MSD ECL based technology.
Cytokine Measurements 20 μL of culture supernatant were added to MSD plates, and incubated for one hour at room temperature. 20 μL of detection antibody diluted in antibody diluent (1 μg/mL), and 110 μL of 2× Read Buffer P was added, and incubated for one hour at RT. Electrochemiluminescence was measured using the SECTOR HTS Imager (MSD, Gaithersburg, Md.). Data Analysis
Compound IC50 values were calculated as follows: The proportion of cytokine production in the presence of compound compared to the cytokine production in the presence of the DMSO vehicle alone (Hi control) was calculated using the formula: Percent Control (POC)=(compound−average Lo)/(average Hi−average Lo)*100.

Assay [3] concerns TNF-α secretion by LPS-treated THP1 cells. Briefly: Lipopolysaccharide-activated THP1 cell TNF production assay. The class given is cell-based. The conditions noted are these: Homo sapiens, read-out: IC50 in the THP-1 cellular TNF production assay.
Assay [4] concerns Collagen-Induced Arthritis (CIA) Model in Rats. Briefly: Collagen-induced arthritis (CIA) model in rats. In kind it is in vivo. The conditions noted are these: 168 h; rat, treated for 7 days from onset of arthritis. The method, then:
Collagen-Induced Arthritis (CIA) Model in Rats
Porcine type II collagen (10 mg) was dissolved in 0.1N acetic acid (5 mL) two days prior to use on a rotating plate in the refrigerator. Subsequently, collagen was emulsified 1:1 with Freund's incomplete adjuvant using an emulsification needle and glass syringes yielding a final concentration of 1 mg/mL.
Disease was induced in each animal by intradermal injection of emulsified collagen in IFA at 10 different sites (100 μL per site) over the back. […] At onset (defined as Day 0), rats were randomized to treatment groups and therapy was initiated with drug or vehicle control as noted in table above. Rats were treated for 7 days and were sacrificed on Day 8.

Setting [5] is: LPS 100 ng/mL, 18 hours, IL-1β, IL-6, TNF-α.
Where [6] appears, read: THP-1, LPS, 3 hours, THP1 cells.

Chain of recombinant human p38α (Q16539 whole entry): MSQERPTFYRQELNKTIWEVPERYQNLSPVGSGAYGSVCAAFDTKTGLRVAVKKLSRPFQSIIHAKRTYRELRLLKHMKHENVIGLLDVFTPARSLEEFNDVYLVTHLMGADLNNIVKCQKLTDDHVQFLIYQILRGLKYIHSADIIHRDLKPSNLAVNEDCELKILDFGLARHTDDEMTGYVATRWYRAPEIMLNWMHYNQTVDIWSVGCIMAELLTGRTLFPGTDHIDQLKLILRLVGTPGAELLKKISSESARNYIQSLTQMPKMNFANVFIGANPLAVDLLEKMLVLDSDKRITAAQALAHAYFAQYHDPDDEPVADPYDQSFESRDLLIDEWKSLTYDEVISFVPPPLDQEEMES

As to `Cc1c(F)cc(C(N)=O)cc1-c1cc2cnn(-c3c(F)cccc3F)c2n(C)c1=O` [Example 31, 3-(1-(2,6-difluorophenyl)-7-methyl-6-oxo-6,7-dihydro-1H-pyrazolo[3,4-b]pyridin-5-yl)-5-fluoro-4-methylbenzamide], the IC50 in assay [1] is 1 nM; in assay [2] (setting [5]), ≤ 125 nM; in assay [3] (setting [6]), ≤ 175 nM.
As for `Cc1ccc(C(=O)NC2CC2)cc1-c1cc2cnn(-c3ccccc3Cl)c2n(C)c1=O` [Example 12, 3-(1-(2-chlorophenyl)-7-methyl-6-oxo-6,7-dihydro-1H-pyrazolo[3,4-b]pyridin-5-yl)-N-cyclopropyl-4-methylbenzamide], the IC50 in assay [1] was 1.8 nM; in assay [2] (setting [5]), ≤ 125 nM; in assay [3] (setting [6]), ≤ 175 nM.
With `Cc1ccc(C(=O)NC2CC2)cc1-c1cc2cnn(-c3ccc(F)cc3F)c2n(C)c1=O` [Example 13, N-cyclopropyl-3-(1-(2,4-difluorophenyl)-7-methyl-6-oxo-6,7-dihydro-1H-pyrazolo[3,4-b]pyridin-5-yl)-4-methylbenzamide], the IC50 in assay [2] (18 h) is ≤ 125 nM; in assay [3] (THP-1, 3 h) it was ≤ 175 nM. In assay [4], the ED50 came to 0.02 mg/kg.
With `Cc1c(F)cc(C(=O)NC2CC2)cc1-c1cc2cnn(-c3c(F)cccc3F)c2n(C)c1=O` [Example 2, N-cyclopropyl-3-(1-(2,6-difluorophenyl)-7-methyl-6-oxo-6,7-dihydro-1H-pyrazolo[3,4-b]pyridin-5-yl)-5-fluoro-4-methylbenzamide], the IC50 in assay [1] was 1.8 nM; in assay [2] (setting [5]), ≤ 125 nM; in assay [3] (setting [6]) it was ≤ 175 nM.
For `Cc1ccc(C(N)=O)cc1-c1cc2cnn(-c3c(F)cccc3F)c2n(C)c1=O` [Example 44, 3-(1-(2,6-difluorophenyl)-7-methyl-6-oxo-6,7-dihydro-1H-pyrazolo[3,4-b]pyridin-5-yl)-4-methylbenzamide], the values for the half-maximal inhibitory concentration (IC50) in assay [1], in assay [2] (setting [5]) and in assay [3] (setting [6]) were 3.4 nM, ≤ 125 nM and ≤ 175 nM, respectively. In assay [4], this compound gave an ED50 of 0.07 mg/kg.
As to `Cc1ccc(C(=O)NC2CC2)cc1-c1cc2cnn(-c3c(F)cccc3F)c2n(C)c1=O` [Example 7, N-cyclopropyl-3-(1-(2,6-difluorophenyl)-7-methyl-6-oxo-6,7-dihydro-1H-pyrazolo[3,4-b]pyridin-5-yl)-4-methylbenzamide], the IC50 is ≤ 125 nM in assay [2] (setting [5]) and ≤ 175 nM in assay [3] (setting [6]). The same compound displayed an ED50 in assay [4] of 0.01 mg/kg.
`Cc1ccc(C(=O)Nc2ccon2)cc1-c1cc2cnn(-c3ccc(F)cc3F)c2n(C)c1=O` [Example 27, 3-(1-(2,4-difluorophenyl)-7-methyl-6-oxo-6,7-dihydro-1H-pyrazolo[3,4-b]pyridin-5-yl)-N-3-isoxazolyl-4-methylbenzamide]: the concentration for half-maximal inhibition (IC50) in assay [1] was 2.4 nM; in assay [2] (setting [5]), ≤ 125 nM; in assay [3] (setting [6]), ≤ 175 nM.
Take `Cc1c(F)cc(C(=O)NC2CC2)cc1-c1cc2cnn(-c3ccccc3Cl)c2n(C)c1=O` [Example 8, 3-(1-(2-chlorophenyl)-7-methyl-6-oxo-6,7-dihydro-1H-pyrazolo[3,4-b]pyridin-5-yl)-N-cyclopropyl-5-fluoro-4-methylbenzamide]: the IC50 in assay [1] is 2.3 nM; in assay [2] (setting [5]), ≤ 125 nM; in assay [3] (setting [6]) it was ≤ 175 nM.
